Values joined by “and” are separate entries in the source; they are usually repeats but may differ in a detail not shown here. Identical values can stand only once. “Also recorded” adds a separate entry of the source.
How the values were obtained:
hOCT2 [1] = molecular target: T1, hOCT2 (Homo sapiens, UniProt O15244); experiment: ASP+ uptake (saturation and inhibition) in hOCT2-HEK cells; type: cell-based; parameters: expressed in transfected cells; host or cells: HEK293, stably transfected; gift of Prof; Koepsell (University of Würzburg)
T1 sequence (O15244 1-555): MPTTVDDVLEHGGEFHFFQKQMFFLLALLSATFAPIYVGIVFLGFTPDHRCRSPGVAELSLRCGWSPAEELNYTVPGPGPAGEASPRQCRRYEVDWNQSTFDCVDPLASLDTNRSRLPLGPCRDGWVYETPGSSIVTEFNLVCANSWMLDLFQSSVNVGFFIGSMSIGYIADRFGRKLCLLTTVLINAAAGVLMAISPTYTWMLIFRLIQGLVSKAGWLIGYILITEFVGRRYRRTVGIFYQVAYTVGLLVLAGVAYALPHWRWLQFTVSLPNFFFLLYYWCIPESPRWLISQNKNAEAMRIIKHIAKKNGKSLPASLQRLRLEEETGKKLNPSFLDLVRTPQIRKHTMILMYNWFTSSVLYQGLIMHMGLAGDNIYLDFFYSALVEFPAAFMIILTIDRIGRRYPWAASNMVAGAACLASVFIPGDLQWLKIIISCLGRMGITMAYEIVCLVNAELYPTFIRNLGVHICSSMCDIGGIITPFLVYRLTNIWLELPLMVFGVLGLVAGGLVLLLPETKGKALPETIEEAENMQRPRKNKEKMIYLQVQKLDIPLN

hOCT2 [2] = molecular target: T1, hOCT2; experiment: ASP+ uptake (saturation and inhibition) in hOCT2-MDCK cysts; type: cell-based; parameters: The full-length hOCT2 tagged at the carboxy-terminus with GFP (hOCT2-GFP); expressed in transfected cells; host or cells: MDCK II cells (ECACC 00062107), retroviral transduction with pQCXIH, grown as cysts in BME2
hOCT2 [3] = experiment: Acute regulation of ASP+ uptake in hOCT2-HEK cells (10 min incubation with kinase/calmodulin inhibitors); type: cell-based, human; conditions: 1 µM ASP+, calmidazolium 5 µM, aminogenistein 10 µM, TBBz 10 µM
Experimental: (§1) The organic cation ASP^+ was used as a fluorescent substrate of hOCT2 [54]. […] To evaluate hOCT2 function, cellular fluorescence was measured before and after ASP^+ addition in the hOCT2-HEK cells and hOCT2-MDCK and EV-MDCK cysts. Transport measurements were performed at T = 37 °C. […] The effects of the CKII regulation pathway on the kinetic parameters of ASP^+ uptake in hOCT2- MDCK-3D were investigated, comparing the saturation curves in the presence or absence of the regulator.

hOCT2 [4] = molecular target: T1, hOCT2; experiment: Acute regulation of ASP+ uptake and ASP+ transport kinetics in hOCT2-MDCK cysts (10 min incubation with kinase/calmodulin inhibitors); type: cell-based; parameters: The full-length hOCT2 tagged at the carboxy-terminus with GFP (hOCT2-GFP); expressed in transfected cells; host or cells: MDCK II cells (ECACC 00062107), retroviral transduction with pQCXIH, grown as cysts in BME2; conditions: for Acute regulation of initial ASP+ uptake after 10 min incubation: 4 µM ASP+, calmidazolium 5 µM, aminogenistein 10 µM, TBBz 10 µM
Experimental: as §1

endogenous canine OCT2 = experiment: ASP+ uptake in EV-MDCK cysts (empty vector); type: cell-based; conditions: EV-MDCK cysts (GFP alone); 1 mM TPA+
Experimental: Upon the addition of 4 µM ASP^+, an increase in cellular fluorescence was observed over time. This fluorescence increase was much higher in the hOCT2-MDCK than the EV-MDCK cysts. […] The slope of the linear range of the ASP^+ uptake increase measured in the first 2 min after ASP^+ addition (arbitrary fluorescence units/[…]) was used as the measurement of the transporter function.
The organic cation ASP^+ was used as a fluorescent substrate of hOCT2 [54]. […] To evaluate hOCT2 function, cellular fluorescence was measured before and after ASP^+ addition in the hOCT2-HEK cells and hOCT2-MDCK and EV-MDCK cysts. Transport measurements were performed at T = 37 °C.

[5] = hOCT2-HEK cells, 1 µM ASP+, 37 °C
[6] = hOCT2-HEK cells, 1 µM ASP+, 37 °C, read-out: IC50 for the inhibition of ASP+ uptake
[7] = hOCT2-MDCK cysts, 4 µM ASP+, 37 °C
[8] = hOCT2-MDCK cysts, 4 µM ASP+, 37 °C, read-out: IC50 for the inhibition of ASP+ uptake

IC50 (hOCT2 [1]; [6]) [µM]	IC50 (hOCT2 [2]; [8]) [µM]	Compound	logIC50 ± SEM for the inhibition of ASP+ uptake (hOCT2 [1]; [5])	logIC50 ± SEM for the inhibition of ASP+ uptake (hOCT2 [2]; [7])	Acute regulation of initial ASP+ uptake after 10 min incubation (hOCT2 [3])	Acute regulation of initial ASP+ uptake after 10 min incubation (hOCT2 [4])	other results
1.1	15.4	CCS(=O)(=O)N1CC(CC#N)(n2cc(-c3ncnc4[nH]ccc34)cn2)C1 [Baricitinib, baricitinib]	−6.00 ± 0.06	−4.81 ± 0.06			logIC50 ± SEM for the inhibition of ASP+ uptake (hOCT2 [1]; hOCT2-HEK cells, 1 µM ASP+, 37 °C, listed as baricitinib): −6.0 ± 0.1; logIC50 ± SEM for the inhibition of ASP+ uptake (hOCT2 [2]; hOCT2-MDCK cysts, 4 µM ASP+, 37 °C, listed as baricitinib): −4.8 ± 0.1
		Clc1ccc(C(c2ccc(Cl)cc2)n2cc[n+](CC(OCc3ccc(Cl)cc3Cl)c3ccc(Cl)cc3Cl)c2)cc1 (stereo not drawn) [calmidazolium]			rapid decrease in ASP^+ uptake	rapid decrease in ASP^+ uptake	
		Brc1c(Br)c(Br)c2[nH]cnc2c1Br [TBBz, 4,5,6,7-tetrabromobenzimidazole]			only in the hOCT2-MDCK cysts	rapid decrease in ASP^+ uptake only in the hOCT2-MDCK cysts	Vmax of ASP+ transport under CKII inhibition (+TBBz) (hOCT2 [4]; 10 min preincubation with 10 µM TBBz): 3.9 ± 0.8 a.u./s^2
		Nc1ccc(-c2cc(=O)c3cc(O)ccc3o2)cc1 [aminogenistein]			rapid decrease in ASP^+ uptake	rapid decrease in ASP^+ uptake	
804	884	CN(C)C(=N)N=C(N)N [Metformin, metformin]	−3.10 ± 0.11	−3.05 ± 0.09			logIC50 ± SEM for the inhibition of ASP+ uptake (hOCT2 [1]; hOCT2-HEK cells, 1 µM ASP+, 37 °C, listed as metformin): −3.1 ± 0.1; logIC50 ± SEM for the inhibition of ASP+ uptake (hOCT2 [2]; hOCT2-MDCK cysts, 4 µM ASP+, 37 °C, listed as metformin): −3.1 ± 0.1
		CN(C)c1ccc(C=Cc2cc[n+](C)cc2)cc1 [ASP^+, 4-(4-(dimethylamino)styryl)-N-methylpyridinium]					Km (hOCT2 [1]; hOCT2-HEK cells, 0-20 µM ASP+, uptake in presence of 1 mM TPA+ subtracted, 37 °C, read-out: Km ± SEM of specific ASP+ uptake): 3.1 ± 0.2 µM; Km (hOCT2 [2]; hOCT2-MDCK cysts, 0-20 µM ASP+, uptake in presence of 1 mM TPA+ subtracted, 37 °C, read-out: Km ± SEM of specific ASP+ uptake): 3.6 ± 1.2 µM; Vmax of ASP+ transport, control (-TBBz) (hOCT2 [4]; 10 min preincubation with control solution): 6.1 ± 0.1 a.u./s^2; Km (hOCT2 [4]; 10 min preincubation with control solution, read-out: Km of ASP+ transport, control (-TBBz)): 2.6 ± 0.2 µM
		CCCCC[N+](CCCCC)(CCCCC)CCCCC [TPA^+, tetrapentylammonium]	−5.9 ± 0.2 and −5.85 ± 0.11	−6.1 ± 0.1 and −6.04 ± 0.05			Inhibition of uptake of 4 µM ASP+ by 1 mM competitor (endogenous canine OCT2): significantly inhibited; IC50 (hOCT2 [1]): 1.4 µM; IC50 (hOCT2 [2]): 0.9 µM; Inhibition of uptake of 4 µM ASP+ by 1 mM competitor (hOCT2 [2]; hOCT2-MDCK cysts, 1 mM TPA+ in uptake buffer): almost completely inhibited; also recorded: completely suppressed

Compound	IC50 (hOCT2 [1]; [6]) [µM]	IC50 (hOCT2 [2]; [8]) [µM]	logIC50 ± SEM for the inhibition of ASP+ uptake (hOCT2 [1]; [5])	logIC50 ± SEM for the inhibition of ASP+ uptake (hOCT2 [2]; [7])	Acute regulation of initial ASP+ uptake after 10 min incubation (hOCT2 [3])	Acute regulation of initial ASP+ uptake after 10 min incubation (hOCT2 [4])	other results
CC[N+](CC)(CC)CC [TEA^+, tetraethylammonium]	7.6	21.3	−5.1 ± 0.1 and −5.12 ± 0.08	−4.7 ± 0.1 and −4.67 ± 0.11			

— PMC8432172, “Properties of Transport Mediated by the Human Organic Cation Transporter 2 Studied in a Polarized Three-Dimensional Epithelial Cell Culture Model” (International Journal of Molecular Sciences, 2021)
